Test results from patent US9446019B2, “Sparstolonin B based pharmaceutical agent for neuroblastoma treatment” (University of South Carolina, priority 2013, dated 2016).

Columns and labels:
Format in all cases: cell-based, human
[1] = system: SKNF-1 cells; test: Cell cycle analysis by flow cytometry (propidium iodide); conditions: SsnB 10 μM, 4 days; control=14.53%
Protocol: The cell cycle progression was determined by flow cytometer analysis. Neuroblastoma cells were treated with SsnB or DMSO in DMEM with 10% FBS. Cells were collected after trypsinization with trypsin-EDTA solution (Atlanta Biologicals) and washed with 1× phosphate buffered saline (PBS). Approximately 1×10^6 cells were suspended in 300 μl of ice-cold 1×PBS, fixed by adding 700 μl of chilled absolute ethanol (to make final ethanol concentration 70%) drop wise and incubated for overnight at −20° C. Cells were pelleted at 1000×rpm for 5 min at 4° C., washed with 1×PBS for 3 times and stained with propidium iodide (Sigma-Aldrich, St. Louis, Mo.) by adding 1 ml of propidium iodide staining solution (containing 20 μg/ml propidium iodide and 10 μg/ml DNase-free RNase A in 0.1% Triton X-100/PBS) for 1 h on ice in dark. Samples were subjected to fluorescence-activated cell sorting analyses utilizing Beckman Coulter flow cytometer (Beckman Coulter, Indianapolis, Ind.). A minimum of 10,000 events were analyzed in each experiment.
To test whether SsnB-induced cell growth inhibition occurs through cell cycle arrest, cell cycle distribution was analyzed by flow cytometry after DNA staining with propidium iodide.

[2] = system: reactive oxygen species in neuroblastoma cells; test: ROS generation, H2DCFDA fluorometry assay
Protocol: The production of reactive oxygen species (ROS) in SsnB-treated neuroblastoma cells was detected by a cell-permeable fluorescence probe H2DCFDA (carboxy-2′,7′-dichlorodihydrofluorescein diacetate) according to the manufacturer's instructions (Invitrogen, Carlsbad, Calif.). Briefly, neuroblastoma cells were cultured in DMEM with 10% FBS in Lab-TekII chamber slides (Fisher Scientific, Pittsburg, Pa.) and treated with SsnB for 2 days (SH-SY5Y and IMR-32 cells), 3 days (NGP cell) or 4 days (SKNF-1 and SK-N-BE(2) cells). After treatments, cells were washed with Hank's buffered salt solution (HBSS; Thermo Scientific, Waltham, Mass.) and incubated with 25 μM of carboxy-H2DCFDA dye for 30 min at 37° C. in dark. Nuclei were counterstained with DAPI. Cells were washed three times with HBSS, mounted with Vectashield mounting medium (Vector Laboratories), and immediately examined under Nikon-E600 fluorescence microscopy equipped with fluorescein isothiocyanate (FITC) filter. Oxidation of H2DCFDA probe occurs almost exclusively in the cytosol, and generates a fluorescence that is proportional to ROS generation in that cell. As a negative control, cells without H2DCFDA dye were used to detect autofluorescence. The fluorometric analysis to detect generation of ROS was performed. Briefly, after treatments with SsnB as mentioned above, cells were labeled with carboxy-H2DCFDA dye (25 μM) for 30 min at 37° C. Cells were trypsinized, washed, and re-suspended in PBS and fluorescence intensity was monitored at excitation wavelength 485 nm and emission wavelength 530 nm with a spectramax spectrophotometer (Molecular Devices, Sunnyvale, Calif.).
SsnB-induced generation of ROS was also evaluated by fluorometry assay. Neuroblastoma cells as treated above were incubated with H2DCFDA dye for 30 min and the fluorescence intensity was measured at 485 nm (excitation wavelength) and 530 nm (emission wavelength).

[3] = system: caspase-3 in neuroblastoma cells; test: Cleaved caspase-3 by immunofluorescence and Western blotting
Protocol: For immunofluorescence staining, cells grown in Lab-TekII chamber slides (Fisher Scientific, Pittsburgh, Pa.) were treated with SsnB in complete culture medium. After treatments, cells were washed with 1×PBS, fixed with 4% paraformaldehyde/PBS for 20 min, and permeabilized with 0.2% Triton X-100/PBS for 10 min at room temperature. Cells were washed with 1×PBS for 3 times and blocked with 5% immunoglobulin (IgG) free-bovine serum albumin (BSA; Jackson ImmunoResearch Laboratories, West Grove, Pa.) in 1×PBS for overnight at 4° C. Cells were incubated with antibody raised against active form of caspase-3 (Cell Signaling Technology, Danvers, Mass.) diluted in 2.5% BSA/PBS for overnight at 4° C. Primary antibodies were detected with secondary antibodies conjugated with fluorescein isothiocyanate (FITC; Santa Cruz Biotechnology, Dallas, Tex.) for 2 h at room temperature. After washing with 1×PBS, cells were mounted with antifade Vectashield mounting media (Vector Laboratories, Burlingame, Calif.), and signals were visualized under Nikon-E600 fluorescence microscope. Nuclei were counterstained with 4′,6-diamidino-2-phenylindole (DAPI; Sigma).
After treatment with SsnB, cells were collected, washed with 1×PBS, and lysed with 1× cell lysis buffer (Cell Signaling Technology, Danvers, Mass.) containing phenylmethylsulfonyl fluoride (PMSF) and protease inhibitors (aprotinin and leupeptin) for 30 min on ice, and centrifuged at 12000×rpm for 10 min at 4° C. Supernatant (total cell protein) was collected and stored at −80° C. Protein concentration was determined by bicinchoninic acid method using BCA protein assay kit (Pierce/ThermoScientific, Waltham, Mass.). Equal amount of proteins were diluted with 5× Laemmli samples loading buffer and boiled for five minutes. The proteins were subjected to sodium dodecyl sulfate (SDS)-polyacrylamide gel electrophoresis and analyzed by Western blots. Briefly, after electrophoresis, proteins were transferred on polyvinylidene difluoride (PVDF) membrane at 100 volt for 3 h in cold room. Membrane was blocked with 5% non-fat dry milk/TBST (20 mM Tris-Cl, pH 7.4; 150 mM NaCl with 0.1% Tween-20) for 4 h at room temperature followed by incubation in primary antibodies diluted in 2.5% non-fat dry milk/TBST for overnight at 4° C. After washing with TBST, membrane was incubated with secondary antibodies (horseradish peroxidase-conjugated goat anti-rabbit or goat anti-mouse IgG; Santa Cruz Biotechnology, Dallas, Tex.) diluted in 2.5% non-fat dry milk/TBST for 3 h at room temperature. Signals were detected by chemiluminiscence detection kit (Pierce/Thermo Fisher Scientific, Rockford, Ill.). Primary antibodies used were cleaved caspase-3 and β-actin (Cell Signaling Technology), N-myc and p53 (Santa Cruz Biotechnology).
At cellular level, mitochondria- or receptor (Fas/FasL)-mediated pathways activate caspase signaling cascade which in turn induces DNA damage and initiates programmed cell death (apoptosis). To determine whether SsnB-induced cell death is mediated by caspase activation, Western blotting as well as immunofluorescence assay were performed to detect the active form of caspase-3 in neuroblastoma cells treated with SsnB for 2 days (SH-SY5Y and IMR-32 cells), 3 days (NGP cells) or 4 days (SKNF-1 and SK-N-BE(2) cells). The number of cleaved caspase-3 positive cells were quantitated by ImageJ programme and plotted. […]

In the case of `O=c1occ2c3c(ccc(O)c13)Oc1ccc(O)cc1-2` [SsnB, 8,5′-dihydroxy-4-phenyl-5,2′-oxidoisocoumarin], the G2/M phase cells [1] is reported as 20.91%, the “H2DCFDA fluorescence intensity vs DMSO” value ([2]; SsnB 1 μM, nonsignificant) is reported as “almost similar” and the “H2DCFDA fluorescence intensity vs DMSO” value ([2]; SsnB 10 μM, p<0.05) is reported as “significantly increased”. For the same compound, the “cleaved caspase-3 level, Western blot” value ([3]; SsnB 1 μM, nonsignificant vs control) was “almost undetectable levels”, the “cleaved caspase-3 protein bands (17 and 19 kDa), Western blot” value ([3]; SsnB 10 μM) was “present” and the “cleaved caspase-3 positive cells (immunofluorescence)” value ([3]; SsnB 10 μM vs DMSO or SsnB 1 μM) was “significantly increased”. The “exposure time at which caspase-3 cleavage is seen” value ([3]; SsnB 10 μM, SH-SY5Y cells, time points 6, 12, 24, 48 h) was ≤ 6 h.
